According to patent publication US20140315972A1, “RS)-2-(2-oxo-4-phenylpyrrolidin-1-yl)acetamide compound having modulatory activity with a commensurate effect, pharmaceutical substance (variants) and its application, composition (variants) thereof” (priority 2011, published 2014):
Values joined by “and” are separate entries in the source; they are usually repeats but may differ in a detail not shown here. Equal values may be shown once. Read-outs that look alike come from different tables or passages of the source. Marks after values point to notes of the source that are not given here.

What was measured:
[1] = Slendering effect, body weight and rating scales in obese humans; format: in vivo, human; settings: for Body weight (%): adult humans, change vs background (not treated) = 100; for decrease of body weight: obese women
Experimental: A study of the slendering effect of Phenotropil (100, 200 and 300 mg once a day for 30 days) in women (37-65 years) with alimentary constitutional obesity and non-obese groups (males and females 23-47 years) are presented in Table 26. The control groups received placebo tablets. The nutrition regimen and ration were not regulated; no recommendations on calories or regimen were given. The purpose of the study was to identify the effect of the drug without the influence of the diet. To assess the condition before and after treatment, in addition to the measurement of body weight, the dynamics of the general clinical condition was studied: asthenia scale MFI-20, Hospital Anxiety and Depression Scale, the quality of life scale SF-36. The questionnaires were completed twice: one day before treatment and the next day after the end of treatment.

[2] = Distribution by internal organs after oral administration (GLC); format: in vivo; settings: rats, 100 mg/kg orally; for concentration at 0.25 h / concentration at 0.5 h / concentration at 1 h / concentration at 1.5 h / concentration at 2 h / concentration at 4 h / concentration at 6 h / concentration at 8 h: both sexes, outbred white, rat, po; for concentration at 0.5 h: 0.50 h; for concentration at 1.5 h: 1.50 h
Experimental: The degree of tropism of the compound in various organs by quantitative content varies and is arranged in descending order as follows: liver, kidneys, heart, and brain. Rapid penetration into the brain confirms the good kinetic ability to penetrate through the blood-brain barrier. In 15 minutes, its presence is detected in the brain, heart, liver and kidneys. In the brain, liver and kidneys, the maximum concentration is achieved in an hour, and 6 hours after oral administration the compound is not detectable any more. […] The maximum concentration of Phenotropil in the myocardium is detected later than in the brain, but it is eliminated from the myocardium also two hours later. In the liver, the maximum concentration is found after an hour and then the concentration is gradually decreasing. One hour after administration, the concentration in the kidneys reaches the maximum, with a gradual decrease further on.

[3] = Daily diuresis in non-obese humans; format: in vivo, human; settings: for Daily urine volume (ml/day, %): adult humans, background (not treated) = 100
Experimental: The effect of Phenotropil (25, 50 and 100 mg in the morning) on diuresis was investigated in non-obese groups (males and females 23-47 years) for 10 days. The daily volume of urine when treated with placebo and Phenotropil was recorded.

mice = format: in vivo; settings: for Mortality: mice
Experimental: Chemical convulsive agents (bicuculline, corazol, thiosemicarbazide, and picrotoxin) and the maximum electroconvulsive shock (ECS) model in the experiment the different types of seizures with their various implementation mechanisms of pathological conditions. The anticonvulsant activity of Phenotropil after a single dose for all the investigated models manifests in a pronounced positive effect on prevention of mortality in the studied doses of 100, 300, 400, 600 mg/kg. In case of bicuculline-induced seizures, mortality in the control group was 70.0%. Phenotropil (100, 300, 600 mg/kg) was effective in 100% of cases. The metrazole-induced mortality in the control was 60.0% and the positive effect of Phenotropil for mortality vs control was 45-35-0%, depending on the dose, respectively. The thiosemicarbazide-induced mortality was 90.0% in the control group, while when treated with Phenotropil (100, 300, 600 mg/kg), respectively: 60-0-0%. […] In case of MES, mortality in the control group was 100.0%, while in the Phenotropil groups (100, 300, 400 mg/kg) it was 20-0-0%, respectively. […] The anticonvulsant effect of Phenotropil prevents the development of seizures and affects the outcome of convulsive states, preventing mortality in all applied models of seizures in animals. The mechanisms of action of anticonvulsant activity of Phenotropil are probably also commensurate, various and depend on the initial state.

rats = test: Forced swimming by Porsolt (behavioral despair), rat pups; format: in vivo; settings: for Duration of immobilization vs control: listed as Phenotropil
Experimental: The antidepressant effect of Phenotropil was studied in adult rats (185-218 g) and rat pups of 28-35 days of age (85-110 g). The test drugs were injected intraperitoneally in the first case and intragastrically in the second case 40 min before the tests. The methods of behavioral despair during forced swimming (Porsolt et al., 1978) and forced swimming with freely rotating wheels (Nomura et al., 1982) were used.

[4] = brain, read-out: Contents of Phenotropil in brain
[5] = heart, read-out: Contents of Phenotropil in heart
[6] = kidney, read-out: Contents of Phenotropil in kidney
[7] = liver, read-out: Contents of Phenotropil in liver

With NC(=O)CN1CC(c2ccccc2)CC1=O (racemic) [Compound 1, (RS)-2-(2-oxo-4-phenylpyrrolidine-1-yl)acetamide] as the compound, how does the “Body weight (%)” value ([1]; 100 mg/day) read?
Its value is −12.0 * %.

What about the “Body weight (%)” value ([1]; 200 mg/day) of the same compound?
The value was −15.0 * %.

And the “Body weight (%)” value ([1]; 300 mg/day)?
Its value is −17.8 * %.

And the “positive effect on cramps when urinating, patients” value ([1]; comorbidities)?
Its value is 5 of 5.

What about the “positive effect on lost ability to sense and discriminate odors, patients” value ([1]; comorbidities) of the same compound?
Its value is 11 of 18.

What about the “positive effect on prostatitis, patients” value ([1]; comorbidities) of the same compound?
Its value is 3 of 3.

And the “positive trend in chronic sinusitis, patients” value ([1]; comorbidities)?
The value was 8 of 8.

What about the “decrease of body weight” value ([1]; 100 mg once a day 30 days) of the same compound?
Its value is 12%.

What about the “decrease of body weight” value ([1]; 200 mg once a day 30 days) of the same compound?
The value was 15%.

What about the “decrease of body weight” value ([1]; 300 mg once a day 30 days) of the same compound?
The value was 18%.

And the “decrease of anxiety and depression, on average” value ([1]; rating scales after 30 days)?
Its value is “more than 60%”.

What about the “decrease of indicators of fatigue” value ([1]; rating scales after 30 days) of the same compound?
The value was 92%.

And the concentration at 0.25 h [2, 4]?
The concentration at 0.25 h was 1600 ± 200 ng/g.

What about the concentration at 0.5 h [2, 4] of the same compound?
The concentration at 0.5 h was 2000 ± 300 ng/g.

And the concentration at 1 h [2, 4]?
Its concentration at 1 h is 6400 ± 800 ng/g.

What about the concentration at 1.5 h [2, 4] of the same compound?
The concentration at 1.5 h was 4000 ± 600 ng/g.

And the concentration at 2 h [2, 4]?
The concentration at 2 h was 1200 ± 300 ng/g.

What about the concentration at 4 h [2, 4] of the same compound?
Its concentration at 4 h is 400 ± 200 ng/g.

And the concentration at 0.25 h [2, 5]?
Its concentration at 0.25 h is 3700 ± 600 ng/g.

What about the concentration at 0.5 h [2, 5] of the same compound?
The concentration at 0.5 h was 7900 ± 900 ng/g.

And the concentration at 1 h [2, 5]?
Its concentration at 1 h is 10100 ± 1000 ng/g.

What about the concentration at 1.5 h [2, 5] of the same compound?
Its concentration at 1.5 h is 14300 ± 1300 ng/g.

What about the concentration at 2 h [2, 5] of the same compound?
Its concentration at 2 h is 12600 ± 1200 ng/g.

And the concentration at 4 h [2, 5]?
Its concentration at 4 h is 8400 ± 1000 ng/g.

And the concentration at 6 h [2, 5]?
Its concentration at 6 h is 4400 ± 800 ng/g.

What about the concentration at 0.25 h [2, 6] of the same compound?
Its concentration at 0.25 h is 33200 ± 3400 ng/g.

What about the concentration at 0.5 h [2, 6] of the same compound?
Its concentration at 0.5 h is 37500 ± 4000 ng/g.

What about the concentration at 1 h [2, 6] of the same compound?
Its concentration at 1 h is 55700 ± 5800 ng/g.

What about the concentration at 1.5 h [2, 6] of the same compound?
The concentration at 1.5 h was 50400 ± 6000 ng/g.

What about the concentration at 2 h [2, 6] of the same compound?
Its concentration at 2 h is 37200 ± 4100 ng/g.

What about the concentration at 4 h [2, 6] of the same compound?
The concentration at 4 h was 28000 ± 3200 ng/g.

What about the concentration at 6 h [2, 6] of the same compound?
The concentration at 6 h was 16000 ± 2100 ng/g.

And the concentration at 8 h [2, 6]?
Its concentration at 8 h is 10100 ± 1300 ng/g.

What about the concentration at 0.25 h [2, 7] of the same compound?
The concentration at 0.25 h was 25600 ± 2400 ng/g.

What about the concentration at 0.5 h [2, 7] of the same compound?
The concentration at 0.5 h was 30100 ± 4300 ng/g.

What about the concentration at 1 h [2, 7] of the same compound?
Its concentration at 1 h is 75800 ± 8200 ng/g.

What about the concentration at 1.5 h [2, 7] of the same compound?
The concentration at 1.5 h was 67700 ± 7100 ng/g.

What about the concentration at 2 h [2, 7] of the same compound?
Its concentration at 2 h is 59600 ± 5400 ng/g.

And the concentration at 4 h [2, 7]?
The concentration at 4 h was 30200 ± 3400 ng/g.

And the concentration at 6 h [2, 7]?
The concentration at 6 h was 17700 ± 2100 ng/g.

And the concentration at 8 h [2, 7]?
Its concentration at 8 h is 11400 ± 1600 ng/g.

What about the “time after which compound is not detectable (brain, liver and kidneys as printed)” value [2] of the same compound?
The value was 6 h.

And the “time of complete elimination from the heart” value [2]?
The value was 8 h.

What about the “time of first detection in brain, heart, liver and kidneys” value [2] of the same compound?
The value was 15 min.

What about the “time of maximum concentration in brain, liver and kidneys” value [2] of the same compound?
Its value is “in an hour”.

What about the “time of maximum concentration in the heart” value [2] of the same compound?
Its value is 1 hour 50 minutes.

What about the “increase of daily urine output, average index” value ([3]; 25, 50, 100 mg in the morning, first three days) of the same compound?
The value was 30-37%.

What about the “Daily urine volume (ml/day, %)” value ([3]; 25 mg/day) of the same compound?
Its value is 130 * %.

And the “Daily urine volume (ml/day, %)” value ([3]; 50 mg/day)?
The value was 137 * %.

And the “Daily urine volume (ml/day, %)” value ([3]; 100 mg/day)?
The value was 137 * %.

And the “fluctuations in urine output” value ([3]; next 7 days)?
Its value is 5-10%.

And the “effective against mortality, % of cases” value (mice; bicuculline-induced seizures, 100, 300, 600 mg/kg)?
The value was 100%.

And the Mortality (mice; Bicuculline 3.0 mg/kg + 100.0 mg/kg)?
The Mortality was 0* %.

What about the Mortality (mice; Bicuculline 3.0 mg/kg + 300.0 mg/kg) of the same compound?
The Mortality was 0* %.

What about the Mortality (mice; Corazol 110.0 mg/kg + 100.0 mg/kg, listed as Phenotropil) of the same compound?
The Mortality was 45%.

And the Mortality (mice; Corazol 110.0 mg/kg + 300.0 mg/kg, listed as Phenotropil)?
The Mortality was 35%.

What about the Mortality (mice; Corazol 110.0 mg/kg + 600.0 mg/kg, listed as Phenotropil) of the same compound?
Its Mortality is 0%.

What about the Mortality (mice; MES + 100.0 mg/kg, listed as Phenotropil, 100 mg/kg) of the same compound?
The Mortality was 20%.

What about the Mortality (mice; MES + 300.0 mg/kg, listed as Phenotropil, 300 mg/kg) of the same compound?
Its Mortality is 0%.

What about the Mortality (mice; MES + 400.0 mg/kg, listed as Phenotropil, 400 mg/kg) of the same compound?
Its Mortality is 0%.

And the Mortality (mice; Thiosemicarbazide 18.0 mg/kg + 100.0 mg/kg, listed as Phenotropil)?
Its Mortality is 60%.

What about the Mortality (mice; Thiosemicarbazide 18.0 mg/kg + 300.0 mg/kg, listed as Phenotropil) of the same compound?
Its Mortality is 0%.

What about the Mortality (mice; Thiosemicarbazide 18.0 mg/kg + 600.0 mg/kg, listed as Phenotropil) of the same compound?
Its Mortality is 0%.

What about the Duration of immobilization (rats; intragastric 100 mg/kg) of the same compound?
The Duration of immobilization was 86.35 ± 51.97 s.

And the “Duration of immobilization vs control” value (rats; intragastric 100 mg/kg)?
The value was −79.8% and −79.77 * %.

What about the Duration of immobilization (rats; intragastric 200 mg/kg) of the same compound?
The Duration of immobilization was 118.72 ± 80.04 s.

What about the “Duration of immobilization vs control” value (rats; intragastric 200 mg/kg) of the same compound?
The value was −72.2% and −72.19 * %.
